According to ChEMBL document CHEMBL1201862, “PubChem BioAssay data set” (2004):
Activity calls are given as the source filed them.

Experiments:
[1] = system: BJ; assay: growth inhibition of engineered Ras-driven BJ cells – cell-based, alamar blue fluorescence, cherrypicked samples, dose response (AID 2631); format: functional; settings: Homo sapiens;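 further: confirmatory dose-response assay in RAS-dependent BJ fibroblasts engineered with TERT, LT and ST, with cytotoxicity read by fluorescence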
[2] = DRD fibroblast viability loss – cell-based, non-viral oncogenic, luminescence, dose response (AID 1934); format: functional; settings: Homo sapiens
[3] = system: BJ; assay: cells; format: functional, cell-based; settings: Homo sapiens
[4] = system: BJ; assay: BJ-TERT-LT-ST fibroblast viability loss – cell-based, RAS-independent, luminescence, dose response (AID 1935); format: functional; settings: Homo sapiens;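 further: BJ fibroblasts immortalized with TERT plus LT and ST oncogenes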
[5] = system: INS1; assay: INS-1E survival protection against cytokine death – cell-based, luminescence, retest, dose response (AID 449756); format: functional; settings: Rattus norvegicus;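 further: cell death triggered by IL-1 beta plus TNF-alpha plus IFN-gamma mixture; protective hits raise ATP signal compared with cytokine alone wells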
[6] = system: BJ; assay: BJ-TERT fibroblast viability loss – cell-based, RAS-independent, luminescence, dose response (AID 1933); format: functional; settings: Homo sapiens
[7] = target: T1, Exodeoxyribonuclease V (Escherichia coli (strain K12), UniProt P04993+P07648+P08394); assay: RecBCD inhibition via phage-restricted bacterial growth – absorbance, V66 E. coli, mutant T4 phage, counter-screen for AddAB inhibitor project, dose response (AID 492957); format: functional, cell-based, Escherichia coli str. K-12 substr. MG1655
T1 sequence (P04993 whole entry): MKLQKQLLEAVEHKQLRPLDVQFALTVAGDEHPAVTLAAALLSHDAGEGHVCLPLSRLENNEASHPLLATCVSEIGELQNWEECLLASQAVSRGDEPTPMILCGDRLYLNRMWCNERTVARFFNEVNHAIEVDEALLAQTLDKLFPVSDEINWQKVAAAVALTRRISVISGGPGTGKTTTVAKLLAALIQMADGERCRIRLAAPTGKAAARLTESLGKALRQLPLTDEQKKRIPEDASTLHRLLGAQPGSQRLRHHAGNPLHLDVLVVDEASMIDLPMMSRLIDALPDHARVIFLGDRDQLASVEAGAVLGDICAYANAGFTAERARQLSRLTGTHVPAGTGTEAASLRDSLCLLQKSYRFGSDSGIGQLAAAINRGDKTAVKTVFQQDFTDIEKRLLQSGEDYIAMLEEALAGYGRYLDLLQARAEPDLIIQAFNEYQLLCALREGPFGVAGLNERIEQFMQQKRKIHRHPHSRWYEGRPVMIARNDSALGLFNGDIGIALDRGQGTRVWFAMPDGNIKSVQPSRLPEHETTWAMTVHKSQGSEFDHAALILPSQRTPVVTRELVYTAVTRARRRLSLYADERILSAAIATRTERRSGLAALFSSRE
T1 sequence (P07648 whole entry): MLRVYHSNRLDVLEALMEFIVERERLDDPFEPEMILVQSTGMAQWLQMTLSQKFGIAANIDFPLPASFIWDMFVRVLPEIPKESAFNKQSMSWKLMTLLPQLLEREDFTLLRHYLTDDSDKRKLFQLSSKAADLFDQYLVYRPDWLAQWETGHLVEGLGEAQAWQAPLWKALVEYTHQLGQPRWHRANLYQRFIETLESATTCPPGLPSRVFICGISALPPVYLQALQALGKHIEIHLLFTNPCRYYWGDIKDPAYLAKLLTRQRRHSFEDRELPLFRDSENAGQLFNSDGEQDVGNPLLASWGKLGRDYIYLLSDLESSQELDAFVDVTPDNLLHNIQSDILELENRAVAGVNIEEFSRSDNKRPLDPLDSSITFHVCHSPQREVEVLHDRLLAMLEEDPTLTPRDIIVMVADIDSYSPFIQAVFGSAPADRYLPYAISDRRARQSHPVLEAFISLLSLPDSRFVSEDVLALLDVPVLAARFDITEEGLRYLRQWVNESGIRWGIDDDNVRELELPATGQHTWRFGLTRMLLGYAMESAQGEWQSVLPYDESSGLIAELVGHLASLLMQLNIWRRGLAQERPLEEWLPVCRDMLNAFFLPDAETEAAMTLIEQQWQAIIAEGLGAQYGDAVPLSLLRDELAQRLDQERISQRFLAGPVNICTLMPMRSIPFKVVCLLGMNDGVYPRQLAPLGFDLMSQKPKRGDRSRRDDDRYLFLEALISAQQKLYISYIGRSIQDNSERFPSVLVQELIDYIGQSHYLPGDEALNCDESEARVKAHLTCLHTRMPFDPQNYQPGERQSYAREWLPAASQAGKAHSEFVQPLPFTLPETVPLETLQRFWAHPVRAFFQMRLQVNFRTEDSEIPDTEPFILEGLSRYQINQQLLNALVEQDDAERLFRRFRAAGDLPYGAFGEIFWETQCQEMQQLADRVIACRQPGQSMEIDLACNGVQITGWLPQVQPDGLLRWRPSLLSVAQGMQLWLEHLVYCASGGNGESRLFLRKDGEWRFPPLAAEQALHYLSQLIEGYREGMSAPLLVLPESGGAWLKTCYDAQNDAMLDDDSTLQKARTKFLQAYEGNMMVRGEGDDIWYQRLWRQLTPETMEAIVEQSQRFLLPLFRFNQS
T1 sequence (P08394 whole entry): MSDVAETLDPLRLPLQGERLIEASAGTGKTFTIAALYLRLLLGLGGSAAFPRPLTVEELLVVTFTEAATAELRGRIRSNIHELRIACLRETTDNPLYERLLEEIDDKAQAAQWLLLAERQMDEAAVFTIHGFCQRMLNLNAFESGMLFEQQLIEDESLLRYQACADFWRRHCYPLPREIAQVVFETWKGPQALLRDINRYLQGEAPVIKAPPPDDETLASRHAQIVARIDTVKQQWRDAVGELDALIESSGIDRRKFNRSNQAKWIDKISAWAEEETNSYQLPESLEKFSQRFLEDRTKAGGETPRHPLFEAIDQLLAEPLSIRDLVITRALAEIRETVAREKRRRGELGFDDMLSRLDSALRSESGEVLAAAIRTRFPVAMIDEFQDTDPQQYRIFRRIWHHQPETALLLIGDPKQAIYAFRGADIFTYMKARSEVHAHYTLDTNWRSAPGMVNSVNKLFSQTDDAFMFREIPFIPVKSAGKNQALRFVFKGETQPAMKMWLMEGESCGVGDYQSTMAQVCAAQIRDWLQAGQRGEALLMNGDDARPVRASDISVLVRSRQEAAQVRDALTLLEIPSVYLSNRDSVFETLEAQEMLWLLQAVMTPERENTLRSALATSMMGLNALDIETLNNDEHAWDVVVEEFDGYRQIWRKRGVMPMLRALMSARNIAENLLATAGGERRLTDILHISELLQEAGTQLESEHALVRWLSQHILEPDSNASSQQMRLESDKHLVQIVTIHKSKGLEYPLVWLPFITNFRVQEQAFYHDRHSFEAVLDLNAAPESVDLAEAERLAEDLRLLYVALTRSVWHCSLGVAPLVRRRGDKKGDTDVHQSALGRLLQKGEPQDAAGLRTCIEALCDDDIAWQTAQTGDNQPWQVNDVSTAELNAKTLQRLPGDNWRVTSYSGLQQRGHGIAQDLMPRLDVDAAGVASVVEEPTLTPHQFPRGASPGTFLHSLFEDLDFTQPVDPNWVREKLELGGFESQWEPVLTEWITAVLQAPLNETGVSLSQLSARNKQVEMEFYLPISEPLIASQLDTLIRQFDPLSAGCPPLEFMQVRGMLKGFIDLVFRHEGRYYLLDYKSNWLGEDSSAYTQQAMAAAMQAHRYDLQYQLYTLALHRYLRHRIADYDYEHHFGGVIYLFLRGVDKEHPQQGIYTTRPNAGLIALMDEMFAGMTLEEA

[8] = Counterscreen for AddAB inhibitors: absorbance-based bacterial cell-based high throughput dose response assay for inhibitors of bacterial viability. [Related pubchem assays (depositor defined):AID435030, AID449728, AID449731, AID488942, AID488955, AID488956]; format: functional
[9] = MIN6 cell viability loss – mouse insulinoma, cytotoxicity control, dose response (AID 2122); format: functional;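 further: confirmatory high-throughput counterscreen run to flag cytotoxic compounds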
[10] = decrease of insulin promoter-GFP reporter – imaging, high-content screening, mouse beta cells (AID 1628); format: functional; settings: MIN6
[11] = target: Large T antigen (Simian virus 40, UniProt P03070); format: functional, Betapolyomavirus macacae;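 further: Confirmatory-stage PubChem screen for compounds that inhibit SV40 T antigen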
[12] = target: T2, Rac GTPase-activating protein 1 (Homo sapiens, UniProt Q9H0H5); assay: blockers of MgcRacGAP-driven Rac1 GTP hydrolysis – biochemical, ADP Hunter fluorescence, primary and confirmatory, confirmation (AID 624330); format: functional
T2 sequence (Q9H0H5 whole entry): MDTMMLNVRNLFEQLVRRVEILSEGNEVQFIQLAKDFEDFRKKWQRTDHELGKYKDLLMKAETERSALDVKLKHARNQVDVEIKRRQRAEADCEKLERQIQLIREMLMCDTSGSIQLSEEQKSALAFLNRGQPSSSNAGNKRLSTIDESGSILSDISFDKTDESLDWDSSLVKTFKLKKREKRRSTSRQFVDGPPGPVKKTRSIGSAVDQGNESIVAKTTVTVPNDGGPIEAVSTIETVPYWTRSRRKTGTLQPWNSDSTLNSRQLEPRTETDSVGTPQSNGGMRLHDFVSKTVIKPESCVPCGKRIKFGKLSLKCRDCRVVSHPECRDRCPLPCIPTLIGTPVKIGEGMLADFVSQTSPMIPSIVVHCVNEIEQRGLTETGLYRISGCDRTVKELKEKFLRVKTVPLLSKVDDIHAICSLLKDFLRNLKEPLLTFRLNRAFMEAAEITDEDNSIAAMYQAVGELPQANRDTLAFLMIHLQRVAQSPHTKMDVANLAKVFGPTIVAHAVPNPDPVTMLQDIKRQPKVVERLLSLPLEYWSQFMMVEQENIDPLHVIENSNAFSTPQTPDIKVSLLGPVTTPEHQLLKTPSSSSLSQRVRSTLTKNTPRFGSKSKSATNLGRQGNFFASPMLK

[13] = target: Glucose-6-phosphate 1-dehydrogenase (Homo sapiens, UniProt P11413); assay: inhibition of Homo sapiens G6PD, dose series – biochemical, fluorescence, selectivity assay for P. falciparum G6PD inhibitor project, dose response (AID 504792); format: functional
[14] = target: T3, Heat shock factor protein 1 (Mus musculus, UniProt P38532); assay: decrease of HSF1-responsive luciferase luminescence – cell-based, NIH3T3, dose retest, confirmation (AID 2382); format: functional;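 further: NIH3T3 fibroblasts with HSF1-driven luciferase reporter stressed by proteasome inhibitor MG132; luminescence from HSF1-driven luciferase expression after 8 hours of MG132 stress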
T3 sequence (P38532 whole entry): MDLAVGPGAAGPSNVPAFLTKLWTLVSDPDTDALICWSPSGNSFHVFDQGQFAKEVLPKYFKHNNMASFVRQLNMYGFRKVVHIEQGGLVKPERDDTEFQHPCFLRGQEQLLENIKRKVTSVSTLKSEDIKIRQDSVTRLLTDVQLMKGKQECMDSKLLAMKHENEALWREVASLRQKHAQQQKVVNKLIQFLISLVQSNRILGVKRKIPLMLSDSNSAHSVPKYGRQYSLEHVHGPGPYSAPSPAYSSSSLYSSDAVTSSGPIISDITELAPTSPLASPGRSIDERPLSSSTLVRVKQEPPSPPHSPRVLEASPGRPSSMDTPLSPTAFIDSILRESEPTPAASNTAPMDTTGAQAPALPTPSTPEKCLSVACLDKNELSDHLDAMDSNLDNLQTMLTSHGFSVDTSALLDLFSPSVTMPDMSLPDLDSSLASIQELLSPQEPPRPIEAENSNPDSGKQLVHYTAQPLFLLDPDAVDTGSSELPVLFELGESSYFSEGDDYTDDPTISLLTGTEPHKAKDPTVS

[15] = luciferase reporter signal suppression in cells – H4 neuroglioma cells, luminescence, dose response (AID 1990); format: functional, cell-based
[16] = alpha-synuclein stem-loop luciferase translation blockers – H4 neuroglioma cells, luminescence, confirmation (AID 1988); format: functional, cell-based
[17] = Luminescence Cell-Based Dose Response HTS to Identify Inhibitors of 5'UTR Stem-Loop Driven Prion Protein mRNA Translation in H4 Neuroglioblastoma Cells. [Related pubchem assays: 1827 (Project Summary), 1813 (Primary HTS)]; format: functional

Chain of Glucose-6-phosphate 1-dehydrogenase (P11413 whole entry): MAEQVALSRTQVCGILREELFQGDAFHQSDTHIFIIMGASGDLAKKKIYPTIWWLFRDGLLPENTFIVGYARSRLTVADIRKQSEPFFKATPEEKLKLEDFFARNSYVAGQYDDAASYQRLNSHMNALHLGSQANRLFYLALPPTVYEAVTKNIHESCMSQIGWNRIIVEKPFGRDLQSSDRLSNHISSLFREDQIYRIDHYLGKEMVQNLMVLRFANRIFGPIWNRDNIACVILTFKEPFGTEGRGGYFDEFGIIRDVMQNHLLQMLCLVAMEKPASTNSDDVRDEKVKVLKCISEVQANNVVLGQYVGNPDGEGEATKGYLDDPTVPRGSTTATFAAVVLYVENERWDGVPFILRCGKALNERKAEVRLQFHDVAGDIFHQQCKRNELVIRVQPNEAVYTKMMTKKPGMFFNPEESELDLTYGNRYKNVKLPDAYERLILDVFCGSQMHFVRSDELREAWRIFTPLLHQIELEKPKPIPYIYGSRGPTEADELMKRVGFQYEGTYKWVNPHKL
Chain of Large T antigen (P03070 whole entry): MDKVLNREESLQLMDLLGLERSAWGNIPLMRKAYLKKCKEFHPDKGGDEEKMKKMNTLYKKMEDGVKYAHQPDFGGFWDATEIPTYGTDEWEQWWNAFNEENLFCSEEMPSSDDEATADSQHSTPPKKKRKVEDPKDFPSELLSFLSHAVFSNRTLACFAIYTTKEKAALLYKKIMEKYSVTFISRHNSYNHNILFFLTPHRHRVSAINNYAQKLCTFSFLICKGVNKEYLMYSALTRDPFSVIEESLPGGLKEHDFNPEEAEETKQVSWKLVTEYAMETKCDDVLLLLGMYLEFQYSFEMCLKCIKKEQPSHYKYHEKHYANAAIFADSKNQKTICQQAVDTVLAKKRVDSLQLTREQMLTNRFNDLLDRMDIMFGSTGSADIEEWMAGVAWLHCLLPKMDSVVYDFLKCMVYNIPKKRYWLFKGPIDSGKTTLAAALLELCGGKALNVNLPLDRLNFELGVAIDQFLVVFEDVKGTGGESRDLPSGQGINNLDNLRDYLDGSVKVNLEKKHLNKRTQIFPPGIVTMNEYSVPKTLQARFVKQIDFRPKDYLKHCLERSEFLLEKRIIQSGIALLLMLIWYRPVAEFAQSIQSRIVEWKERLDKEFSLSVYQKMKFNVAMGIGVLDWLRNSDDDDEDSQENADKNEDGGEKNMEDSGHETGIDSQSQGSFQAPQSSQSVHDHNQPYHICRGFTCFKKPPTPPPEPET

## CC(=O)Nc1ccc(NC(=O)CN(c2cccc([N+](=O)[O-])c2)S(C)(=O)=O)cc1
[1]
  EC50: 11.8 µM (active)
[2]
  EC50: > 150 µM (inconclusive)
[3]
  EC50: 3.09 µM (inconclusive)
[4]
  EC50: > 150 µM (inconclusive)
[5]
  AC50: 6.91 µM (active)
[6]
  EC50: > 150 µM (not active)

## CC(C)Oc1ccc(Cc2cnc(N)nc2N)cc1
[7]
  IC50: 56.3 µM (inactive)
[8]
  IC50: 36.5 µM (inactive)

## CC(C)Cc1nc2oc3c(NCC4CCCO4)ncnc3c2c2c1CCC2 (stereo unspecified)
[9]
  IC50: 4.96 µM (active)
[10]
  IC50: 1.4 µM (active)

## CC1(C)OC(=O)C(N=Nc2ccc(O)cc2)=C(O)O1
[11]
  IC50: 6.72 µM (active)
[12]
  IC50: 20.9 µM (active)
[7]
  IC50: > 119 µM (inactive)
[8]
  IC50: > 119 µM (inactive)

## Cc1nc2ccccn2c1-c1ccnn1S(=O)(=O)c1ccc(F)cc1
[13]
  IC50: > 80 µM (inactive)
[14]
  EC50: > 195 µM (not active)

## CC(C)CCNc1nnnc2c1sc1nc(N3CCOCC3)c3c(c12)CC(C)(C)SC3
[9]
  IC50: 12.5 µM (inactive)
[15]
  EC50: 27.9 µM (active)
[10]
  IC50: 2.29 µM (active)
[16]
  EC50: > 120 µM (not active)
[17]
  EC50: > 120 µM (not active)
